The text below walks through data of ChEMBL document CHEMBL1201862, “PubChem BioAssay data set” (2004).

Holding throughout (test): NCI anticancer screen, dose series, 48 h
Assay [1] deals with ACHN.
For assay [2], the system named is DU-145.
The subject of assay [3] is EKVX.
Assay [4] concerns HL-60.
For assay [5], the system named is HOP-92.
For assay [6], the system named is HT-29.
In assay [7] the test system is IGROV-1.
The subject of assay [8] is K562.
The subject of assay [9] is M14.
Assay [10] relates to MCF7.
Assay [11] has as its system NCI-H460.
In assay [12] the test system is NCI-H522.
Assay [13] concerns RPMI-8226.
Assay [14] relates to RXF 393.
Assay [15] relates to SK-MEL-5.
For assay [16], the system named is SN12C.
The test system of assay [17] is SR.
Assay [18] deals with UACC-257.
For assay [19], the system named is UACC-62.
The test system of assay [20] is UO-31.

SMILES strings stand for the structures.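 Five compound concentrations were applied to cells in 96-well plates for 48 hours; endpoints were derived by simple linear interpolation of the resulting dose-response curve. The concentration for 50% growth inhibition is given as GI50.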 Active and inactive are the calls of the source. Rule as the data show it: active = GI50 up to about 1.1 µM and inactive = higher. A value given as a limit tells only on which side of the number the result lay.

For the compound `COC1=CC(=O)c2c(cc(COP(N)(=O)N(CCCl)CCCl)n2C)C1=O` (stereo not given), the GI50 in [1] is < 0.0183 µM (active); in assay [2], 1.75 µM (inactive); in assay [3], 0.676 µM (active); in [4], 0.302 µM (active); in assay [5], 1.41 µM (inactive); in [6], 0.186 µM (active). For the same compound, the GI50 is 0.17 µM (active) in assay [7]; 1.52 µM (inactive) in assay [8]; 0.826 µM (active) in assay [9]; 0.0767 µM (active) in assay [10]; 0.123 µM (active) in assay [11]; 0.0746 µM (active) in assay [12]. Also, the GI50 in [13] is 1.37 µM (inactive); in [14] it was 0.457 µM (active); in assay [15], 1.36 µM (inactive); in assay [16], < 0.0241 µM (active); in [17] it was 0.0603 µM (active); in [18] it was 3.28 µM (inactive). Also, the GI50 was 0.721 µM (active) in assay [19] and 0.557 µM (active) in [20].

Turning to `CCCCCNC1=CC(=O)c2ccccc2C1=O`, the GI50 in assay [1] is 58.9 µM (inactive); in [2] it was 53.3 µM (inactive); in assay [3] it was > 58.9 µM (inactive); in assay [4], 18.5 µM (inactive); in [5], 17.4 µM (inactive); in assay [6], 69.2 µM (inactive). The GI50 in assay [7] was 33.2 µM (inactive); in assay [8], > 100 µM (inactive); in assay [9], > 62.4 µM (inactive); in assay [10], > 72.3 µM (inactive); in assay [11], 34.5 µM (inactive); in assay [12], 19.7 µM (inactive). Besides, the GI50 was > 91.8 µM (inactive) in [13]; 21.7 µM (inactive) in assay [14]; 17.9 µM (inactive) in assay [15]; 49.9 µM (inactive) in assay [16]; 46.6 µM (inactive) in assay [17]; > 60.5 µM (inactive) in assay [18]. The GI50 in [19] is 33.7 µM (inactive); in assay [20] it was > 51.6 µM (inactive).

On to `BC(=O)NC(CC(C)C)C(=O)NCC(=O)NC1c2ccsc2C(=O)C1O.CN(C)C` (stereo not given), for which the GI50 in assay [1], in assay [2], in [3], in assay [4], in [5] and in [6] was > 100 µM (inactive) in each case. Besides, the GI50 in [7] was > 100 µM (inactive); in assay [8], 31.6 µM (inactive); in [9] it was > 100 µM (inactive); in assay [10] it was 2.37 µM (inactive); in assay [11], 31.6 µM (inactive); in assay [12] it was > 100 µM (inactive). For the same compound, the GI50 in assay [13], in [14], in assay [15], in assay [16], in assay [17] and in [18] was > 100 µM (inactive) throughout. Besides, the GI50 in assay [19] and in assay [20] was > 100 µM (inactive) in each case.

`NC(=O)[C@H](Cc1ccc(O)cc1)NC1=C(Cl)C(=O)c2c(O)ccc(O)c2C1=O`: the GI50 in [1] is 2.67 µM (inactive); in assay [2], 6.53 µM (inactive); in assay [3], > 10 µM (inactive); in assay [4], 1.04 µM (active); in [5] it was 2.13 µM (inactive); in assay [6], 2.38 µM (inactive). The GI50 in [7] is 2.07 µM (inactive); in assay [8] it was 1.45 µM (inactive); in assay [9], 3.14 µM (inactive); in [10] it was 1.32 µM (inactive); in [11], 7.76 µM (inactive); in assay [12], 1.63 µM (inactive). Further, the GI50 was 2.25 µM (inactive) in assay [13]; 3.52 µM (inactive) in assay [14]; 1.47 µM (inactive) in assay [15]; 3.55 µM (inactive) in [16]; 1.34 µM (inactive) in assay [17]; 3.15 µM (inactive) in [18]. The GI50 in assay [19] is 1.85 µM (inactive); in assay [20], 4 µM (inactive).
